This note sets out measurements from US10610517B2, “Compositions and methods for treating neoplastic diseases” (Celgene International II Sàrl, priority 2004, dated 2020).

In data set [1] the test system is RPMI 8226 MM cells. The data set is classed as in vivo, beige-nude-xid (BNX) mice.
The subject of data set [2] is MM.1S MM cells. Briefly: VEGF-induced migration of MM cells. The data set is classed as cell-based, human. The following applies: 7 or 10 nM; FIG. 8. How it is done: VEGF is elevated in the bone marrow microenvironment and triggers migration, growth, and angiogenesis in MM cells. See Podar, K., Tai, Y. T., Lin, B. K., Narsimhan, R. P., Sattler, M., Kijima, T., Salgia, R., Gupta, D., Chauhan, D. & Anderson, K. C. […] Thus, whether the compound of formula (II) (X=Cl) alters VEGF-induced migration of MM cells was evaluated. VEGF induced migration was examined in the presence or absence of the compound (7 or 10 nM). Cell migration was assayed as described previously in Podar, K., Tai, Y. T., Davies, F. E., Lentzsch, S., Sattler, M., Hideshima, T., Lin, B. K., Gupta, D., Shima, Y., Chauhan, D., Mitsiades, C., Raje, N., Richardson, P. & Anderson, K. C. […] These findings indicate that the compound may negatively regulate both homing of MM cells to the bone marrow and their egress into the peripheral blood.

In data set [3] the test system is MM.1S cells. Briefly: Mitochondrial and caspase apoptotic signaling in MM cells (flow cytometry, immunoblot). The following applies: 7 nM. Format: cell-based, human. How it is done:
Mitochondria play a critical role in apoptosis induction during stress. See Bossy-Wetzel, E. & Green, D. R. (1999) Mutat Res 434, 243-51 and Chauhan, D. & Anderson, K. C. […] Superoxide (O2^−) production was measured by staining cells with membrane permeable dye dihydroethidium (HE) for the last 15 min. Superoxide anions oxidize HE to fluorescent ethidium, permitting analysis by flow cytometry.
Reprobing the immunoblots with anti-Hsp60 (lower, left panel) and anti-tubulin (lower, right panel) Abs confirms purity of mitochondrial extracts and equal protein loading. Release of mitochondrial apoptogenic proteins cyto-c and Smac/DIABLO induce activation of caspases-9 and -3. […] As a control for equal loading of proteins and purity of mitochondrial fractions, filters were also reprobed with anti-tubulin (lower right panel) and anti-Hsp60 Abs (lower left panel), respectively. Blots are representative of three independent experiments.
Both caspase-9 (mitochondria-dependent) and caspase-8 (mitochondria-independent) are known to proteolytically cleave and activate a common downstream effector capsase-3, resulting in PARP cleavage. […] Total protein lysates were subjected to SDS-PAGE analysis. Immunoblot analysis of the lysates was performed with anti-PARP (upper panel) or anti-caspase-3 (lower panel) Abs. ‘FL’ indicates ‘full length’ and ‘CF’ denotes cleaved fragment.
Immunoblot analysis was performed using antibodies to cytochrome-c, Smac, Caspase-8, -9, or -3 (Cell Signaling, Beverly, Mass.), tubulin (Sigma, St. Louis, Mo.), PARP, Hsp60, or Bax (BD Bioscience Pharmingen, San Diego, Calif.). Blots were developed by enhanced chemiluminesence (ECL; Amersham, Arlington Heights, Ill.).
Background: In flow cytometry, cells or beads pass a laser one at a time.

The target of data set [4] is proteasome β-5, β-1, β-2 subunits in MM.1S cells (Homo sapiens, UniProt P28072+P28074+Q99436). The data set is classed as cell-based. Here is the method:
In vivo determination of proteasome activity was conducted using a competition experiment with Dansyl-Ahx3L3VS, which covalently modifies all active proteasome subunits. This inhibitor contains a dansyl sulfonamide hexanoyl hapten that can be visualized by immunoblotting using antibodies against the dansyl moiety. […] Cells were lysed by incubating them for 30 mins in NP-40 lysis buffer (50 mM Tris-HCl pH 8.0, 150 mM NaCl, 1% NP-40), followed by 5 min. centrifugation to remove membrane fractions, nuclei, and cell debris. […] Blots were developed by enhanced chemiluminescence (Western Lightning, Perkin-Elmer).

Data set [5] relates to 20S proteasome in white blood cell (WBC) lysates. Briefly: Ex vivo 20S proteasome activity in whole blood cells in mice. How it is done: To directly determine whether the compound of formula (II) (X=Cl) inhibits proteasome activity in vivo, the compound of formula (II) (X=Cl) was dissolved in 100% DMSO and serially diluted with 5% Solutol (Solutol® HS15; polyethylene glycol 660 12-hydroxystearate, BASF, Shreveport, La.) yielding a final concentration of 2% DMSO. The vehicle control consisted of 2% DMSO and 98% (5% Solutol® HS15). Male Swiss-Webster mice (five per group, 20-25 grams in weight) were treated at Bolder BioPATH, Inc. (Boulder, Colo.) with various concentrations of the compound either intravenously or orally at a volume of 10 mL/kg. One group of animals was untreated to establish a baseline of proteasome activity. Ninety minutes after administration of the compound, the animals were anesthetized and blood withdrawn by cardiac puncture. Packed whole blood cells were collected by centrifugation, washed with PBS, and frozen on dry ice for determination of ex vivo proteasome activity. Chymotrypsin-like activity of the 20S proteasome in white blood cell (WBC) lysates was determined using the peptide substrate suc-LLVY-AMC. Relative Fluoresence Units (RFU) were normalized using the protein concentrations of the cell lysates. The 20S proteasome activity of the individual mice is shown in FIG. 2 with the horizontal bar representing the average activity. […]

[6] abbreviates: 0.25 or 0.5 mg/kg orally twice a week.

Like-named read-outs stand apart in the source and are kept apart here.

Regarding `CC12OC(=O)C1(C(O)C1C=CCCC1)NC(=O)C2CCCl` (stereo not drawn) [compound of formula (II) (X=Cl)], in data set [1] (setting [6]), the MM tumor growth entry was “significantly inhibits MM tumor growth” and the survival entry is on record as “prolongs survival”. In data set [1] (after 12 weeks of treatment, oral), the neurological behavioral changes result is “no neurological behavioral changes were observed”. Besides, the “treated mice with no recurrence of tumor” value in data set [1] (day 300, oral, FIG. 10C) is recorded as 57%. For the same compound, the tumor progression result in data set [1] (i.v. twice weekly (compound 0.15 mg/kg; Bortezomib 1.0 mg/kg), p<0.01) is “significantly reduced the tumor progression”. Besides, in data set [1] (i.v. twice weekly (compound 0.15 mg/kg; Bortezomib 1.0 mg/kg), p=0.0137), the survival result was “prolonged survival”. For the same compound, the “tolerability and body weight” value in data set [1] (oral 0.25 or 0.5 mg/kg, FIG. 10D) is listed as “well tolerated by mice, without evidence of weight loss”. The “treated mice with complete regression of tumors” value in data set [1] (oral, twice a week) is reported as 70%. Besides, the “histologic analysis of the inoculation sites” value in data set [1] (versus vehicle, FIG. 10E) is “disappearance of plasma cells”. Moreover, the VEGF-induced migration result in data set [2] is “decreases VEGF-induced migration”. The “mitochondrial membrane potential (ΔΨm), CMXRos” value in data set [3] (12 h, serum starved MM.1S, FIG. 11A) is “decreases ΔΨm”. Moreover, the “Superoxide (O2−) production, dihydroethidium” value in data set [3] (12 h, FIG. 11B) is on record as “triggers O2^− production”. In data set [3] (24 h, MM.1S or MM.1R, FIG. 11F), the “caspase-3 and PARP cleavage” value is “triggers caspase-3 and PARP cleavage”. The “mitochondrial versus cytosolic cyto-c and smac” value in data set [3] (24 h, FIG. 11C) is reported as “triggers a decrease in mitochondrial cyto-c”. Moreover, the caspase-9 cleavage entry in data set [3] (24 h, FIG. 11D) was “induces proteolytic cleavage of caspase-9”. In data set [3] (24 h, FIG. 11E), the caspase-8 activation entry is recorded as “activates caspase-8”. Moreover, the “dansylAhx3L3VS-labeling of the β-5 subunits” value in data set [4] (7 nM, 30 mins, 1 h or 3 h, FIG. 4) is recorded as “decreases the dansylAhx3L3VS-labeling of the β-5 subunits”. In data set [4] (MM.1S cells), the “concentration decreasing dansylAhx3L3VS-labeling of the β-1 subunits” value stood at 1 nM and the “concentration decreasing dansylAhx3L3VS-labeling of the β-2 subunits” value was 20 nM. For the same compound, the oral activity result in data set [5] (oral administration, mice) is on record as “orally active”. The “Chymotrypsin-like activity of the 20S proteasome in WBC lysates” value in data set [5] (single i.v. or oral administration, 90 minutes after administration, FIG. 2) was “inhibits chymotrypsin-like activity of 20S proteasomes in white blood cells in a dose-dependent manner”.
